Source: patent US12552790B2, “Positive modulators of the muscarinic acetylcholine receptor M4” (Vanderbilt University, priority 2023, dated 2026)
pEC50: −log10 of the molar value.

Assays:
Human M4 = target: T1, Human M4 (Homo sapiens, UniProt P08173); test: M4 cell-based functional assay, calcium mobilization, potentiation of ACh EC20; conditions: for Emax at 30 µM: % ACh maximum at 30 μM; for pEC50: CHO-K1 hM4-Gqi5 cells, calcium flux, ACh EC20
T1 construct: expressed in transfected cells
T1 sequence (P08173 1-479): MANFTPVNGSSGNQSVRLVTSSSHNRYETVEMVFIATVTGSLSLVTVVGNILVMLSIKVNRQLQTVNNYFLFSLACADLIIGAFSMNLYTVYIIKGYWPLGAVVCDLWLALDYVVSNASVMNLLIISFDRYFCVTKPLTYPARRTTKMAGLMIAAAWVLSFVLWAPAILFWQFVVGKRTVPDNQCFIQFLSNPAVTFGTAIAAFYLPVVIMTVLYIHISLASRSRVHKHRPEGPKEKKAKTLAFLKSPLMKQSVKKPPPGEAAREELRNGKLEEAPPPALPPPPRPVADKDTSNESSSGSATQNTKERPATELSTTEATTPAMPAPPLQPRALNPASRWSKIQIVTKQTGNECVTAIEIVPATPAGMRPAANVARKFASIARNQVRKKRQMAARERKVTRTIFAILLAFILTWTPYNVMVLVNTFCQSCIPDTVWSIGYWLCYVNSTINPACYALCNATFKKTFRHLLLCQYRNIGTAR
Method: Human and rat M4 cDNAs, along with the chimeric G protein Gqi5, were transfected into Chinese hamster ovary (CHO-K1) cells purchased from the American Type Culture Collection using Lipofectamine2000. The transfected cells were subjected to selection antbiotic treatment to generate stable cell lines; G418 sulfate (1 mg/ml) for selecting M4 expressing cells and Hygromycin B (500 μg/mL) for selecting Gqi5 expressing cells. The resulting polyclones were further screened to obtain monoclones of hM4-Gqi5 and rM4-Gqi5 for compound screening assay. Stable monoclone cells were maintained in Ham's F-12 medium containing 10% heat-inactivated fetal bovine serum (FBS), 1× Antibiotic/Antimycotic, 20 mM HEPES, 500 μg/mL G418 sulfate, and 200 μg/mL Hygromycin B in 37° C. humidified incubators in the presence of 5% CO2.
(§1) The high throughput assay was employed to measure receptor-induced mobilization of intracellular calcium to determine compound activity. Test compound was added to cells expressing the muscarinic receptors that were loaded with calcium sensitive fluorescent dye. After a ˜2.5 minute incubation period, a submaximal (EC20) concentration of acetylcholine was added, and the response measured. This kinetic assay allows for simultaneous screening and potency determination of multiple pharmacological modes of action including agonist and potentiator activity. CHO-K1 cells stably expressing muscarinic receptors were plated in growth medium lacking G418 and hygromycin at 15,000 cells/20 μL/well in Greiner 384-well black-walled, tissue culture (TC)-treated, clear-bottom plates (Greiner Bio-One). Cells were incubated overnight at 37° C. and 5% CO2. The next day, calcium assay buffer (Hank's balanced salt solution (HBSS), 20 mM HEPES, 2.5 mM Probenecid, 4.16 mM sodium bicarbonate (Sigma-Aldrich, St. Louis, MO)) was prepared to dilute compounds, agonists, and Fluo-4-acetomethoxyester (Fluo-4-AM), fluorescent calcium indicator dye. Compounds were serially diluted 1:3 into 10 point concentration response curves in DMSO using the Bravo Liquid Handler (Agilent, Santa Clara, CA), transferred to a 384 well daughter plates using an Echo acoustic liquid handler (Beckman Coulter, Indianapolis, Indiana), and diluted in assay Buffer to a 2× final concentration. The agonist plates were prepared using acetylcholine (ACh, Sigma-Aldrich, St. Louis, MO) concentrations for the EC20 and ECMAX responses by diluting in assay buffer to a 5× final concentration. The 2× dye solution (2.3 μM) was prepared by mixing a 2.3 mM Fluo-4-AM stock in DMSO with 10% (w/v) pluronic acid F-127 in a 1:1 ratio in assay buffer. Using a microplate washer (BioTek, Winooski, VT), cells were washed with assay buffer for 3 times to remove medium. After the final wash, 20 μL of assay buffer remained in the cell plates. Immediately, 20 μL of the 2× dye solution (final 1.15 μM) was added to each well of the cell plate using a Multidrop Combi dispenser (Thermo Fisher, Waltham, MA). After cells were incubated with the dye solutions for 45 min at 37° C. in the presence of 5% CO2, the dye solutions were removed and replaced with assay buffer using a microplate washer, leaving 20 μL of assay buffer in the cell plate.
The prepared compound, agonist, and cell plates were placed inside the Functional Drug Screening System uCell (FDSS uCell, Hamamatsu, Japan) to measure the calcium flux. The triple add protocol was used to measure Ca kinetics; Compound, ACh for EC20, and ACh for EC80 adds in an order. Briefly, after establishment of a fluorescence baseline for 2 seconds (excitation, 480 nm; emission, 530 nm), first add occurred by adding 20 μL of test compound to the cells, and the response was measured for 140 seconds. This is followed by second add; 10 μL (5×) of an EC20 concentration of ACh agonist was added to the cells, and the response of the cells was measured for 125 seconds. […]

Human M2 = target: T2, Human M2 (Homo sapiens, UniProt P08172); test: M2 cell-based functional assay, calcium mobilization (selectivity); conditions: for Emax at 30 µM: % ACh maximum at 30 μM; for pEC50: M2 cell-based functional assay, calcium flux
T2 construct: expressed in transfected cells; host or cells: CHO-K1
T2 sequence (P08172 1-466): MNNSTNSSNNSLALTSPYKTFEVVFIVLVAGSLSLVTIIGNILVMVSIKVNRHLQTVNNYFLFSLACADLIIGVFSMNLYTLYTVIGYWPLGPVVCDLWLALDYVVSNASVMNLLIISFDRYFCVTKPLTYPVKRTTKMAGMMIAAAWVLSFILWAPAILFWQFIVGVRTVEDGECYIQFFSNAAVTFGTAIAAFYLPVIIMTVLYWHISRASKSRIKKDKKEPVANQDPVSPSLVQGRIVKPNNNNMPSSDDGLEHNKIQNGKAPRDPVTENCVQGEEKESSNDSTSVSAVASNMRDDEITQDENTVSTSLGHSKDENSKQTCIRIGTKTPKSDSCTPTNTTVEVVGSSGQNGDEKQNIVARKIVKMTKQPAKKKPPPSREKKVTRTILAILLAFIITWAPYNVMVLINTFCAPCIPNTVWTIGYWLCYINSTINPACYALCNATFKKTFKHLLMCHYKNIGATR
Method: as §1
The prepared compound, agonist, and cell plates were placed inside the Functional Drug Screening System uCell (FDSS uCell, Hamamatsu, Japan) to measure the calcium flux. The triple add protocol was used to measure Ca kinetics; Compound, ACh for EC20, and ACh for EC80 adds in an order. Briefly, after establishment of a fluorescence baseline for 2 seconds (excitation, 480 nm; emission, 530 nm), first add occurred by adding 20 μL of test compound to the cells, and the response was measured for 140 seconds. This is followed by second add; 10 μL (5×) of an EC20 concentration of ACh agonist was added to the cells, and the response of the cells was measured for 125 seconds. Immediately, the third add occurred by adding […] (5×) of an EC80 concentration of ACh and the response of the cells was measured for 90 seconds. Acetylcholine-mediated maximum response (ECmax) was measured by adding 1 mM ACh as third add in the control wells. DMSO vehicle was added to the control wells in the first add for assessing ACh EC20, EC80, and ECmax responses. Calcium fluorescence was recorded as fold over basal fluorescence and raw data were normalized to the maximal response to ACh agonist. Agonist activity was analyzed as a concentration-dependent increase in calcium mobilization upon compound addition. Positive allosteric modulator activity was analyzed as a concentration-dependent increase in the EC20 acetylcholine response. Antagonist activity was analyzed as a concentration-dependent decrease in the EC80 acetylcholine response. […]

`[2H]C1([2H])Oc2ccc(OC3CCN(c4nc5nn([C@@H]6CCOC6)c(=O)n5cc4C)CC3)cc2OC1([2H])[2H]` [Compound A4, (R)-7-(4-((2,3-dihydrobenzo[b][1,4]dioxin-6-yl-2,2,3,3-d4)oxy)piperidin-1-yl)-6-methyl-2-(tetrahydrofuran-3-yl)-[1,2,4]triazolo[4,3-a]pyrimidin-3(2H)-one] gave an Emax at 30 µM (Human M4) of 88%, a pEC50 (Human M4) of 8.05 and an Emax at 30 µM (Human M2) of 68%. It also gave a pEC50 (Human M2) of 5.86.

`[2H]C1([2H])Oc2ccc(O[C@H]3CCN(c4nc5c(cc4C)C(=O)NC5)[C@H](C)C3)cc2OC1([2H])[2H]` [Compound 4, 2-((2R,4S)-4-((2,3-dihydrobenzo[b][1,4]dioxin-6-yl-2,2,3,3-d4)oxy)-2-methylpiperidin-1-yl)-3-methyl-6,7-dihydro-5H-pyrrolo[3,4-b]pyridin-5-one] was tested, and the Emax at 30 µM (Human M4) was 85%, the pEC50 (Human M4) was 7.96 and the Emax at 30 µM (Human M2) was 57%. It also gave a pEC50 (Human M2) of 5.23.

`[2H]C1([2H])Oc2ccc(OC3CCN(c4nc5c(cc4C)C(=O)OC5C)CC3)cc2OC1([2H])[2H]` (stereo not drawn) [Compound 9, 2-(4-((2,3-dihydrobenzo[b][1,4]dioxin-6-yl-2,2,3,3-d4)oxy)piperidin-1-yl)-3,7-dimethylfuro[3,4-b]pyridin-5(7H)-one] showed an Emax at 30 µM (Human M4) of 91%, a pEC50 (Human M4) of 7.57 and an Emax at 30 µM (Human M2) of 57%. For the same compound, the pEC50 (Human M2) was 5.65.

`[2H]C1([2H])Oc2ccc(OC3CCN(c4nc5nn(C)c(=O)n5c5c4CCCC5)CC3)cc2OC1([2H])[2H]` [Compound A15, 5-(4-((2,3-dihydrobenzo[b][1,4]dioxin-6-yl-2,2,3,3-d4)oxy)piperidin-1-yl)-2-methyl-6,7,8,9-tetrahydro-[1,2,4]triazolo[4,3-a]quinazolin-1(2H)-one] gave an Emax at 30 µM (Human M4) of 83%, a pEC50 (Human M4) of 7.28 and an Emax at 30 µM (Human M2) of 45%. For the same compound, the pEC50 (Human M2) was 5.23.

`[2H]C1([2H])Oc2ccc(OC3CCN(c4nc5nn(CC)c(=O)n5cc4C)CC3)cc2OC1([2H])[2H]` [Compound A2, 7-(4-((2,3-dihydrobenzo[b][1,4]dioxin-6-yl-2,2,3,3-d4)oxy)piperidin-1-yl)-2-ethyl-6-methyl-[1,2,4]triazolo[4,3-a]pyrimidin-3(2H)-one] gave an Emax at 30 µM (Human M4) of 82%, a pEC50 (Human M4) of 8.70 and an Emax at 30 µM (Human M2) of 70%. The pEC50 (Human M2) was 6.05.

For `[2H]C1([2H])Oc2ccc(OC3CCN(c4nc5nn(C)c(=O)n5c(Cl)c4C)CC3)cc2OC1([2H])[2H]` [Compound A11, 5-chloro-7-(4-((2,3-dihydrobenzo[b][1,4]dioxin-6-yl-2,2,3,3-d4)oxy)piperidin-1-yl)-2,6-dimethyl-[1,2,4]triazolo[4,3-a]pyrimidin-3(2H)-one], the Emax at 30 µM (Human M4) was 90%, the pEC50 (Human M4) was 7.92 and the Emax at 30 µM (Human M2) was 57%. The pEC50 (Human M2) was 5.22.

`[2H]C1([2H])CC(Oc2ccc3c(c2)OC([2H])([2H])C([2H])([2H])O3)CC([2H])([2H])N1c1nc2c(cc1C)C(=O)NC2` [Compound 2, 2-(4-((2,3-dihydrobenzo[b][1,4]dioxin-6-yl-2,2,3,3-d4)oxy)piperidin-1-yl-2,2,6,6-d4)-3-methyl-6,7-dihydro-5H-pyrrolo[3,4-b]pyridin-5-one] was tested, and the Emax at 30 µM (Human M4) was 91%, the pEC50 (Human M4) was 8.52 and the Emax at 30 µM (Human M2) was 57%. It also gave a pEC50 (Human M2) of 6.25.

`[2H]C1([2H])Oc2ccc(OC3CCN(c4nc5c(cc4C)C(=O)OC5)CC3)cc2OC1([2H])[2H]` [Compound 8, 2-(4-((2,3-dihydrobenzo[b][1,4]dioxin-6-yl-2,2,3,3-d4)oxy)piperidin-1-yl)-3-methylfuro[3,4-b]pyridin-5(7H)-one] was tested, and the Emax at 30 µM (Human M4) was 104%, the pEC50 (Human M4) was 8.52 and the Emax at 30 µM (Human M2) was 56%. It also gave a pEC50 (Human M2) of 6.31.

In the case of `[2H]C1(Oc2ccc3c(c2)OCCO3)CCN(c2nc3c(cc2C)C(=O)NC3)CC1` [Compound 10, 2-(4-((2,3-dihydrobenzo[b][1,4]dioxin-6-yl)oxy)piperidin-1-yl-4-d)-3-methyl-6,7-dihydro-5H-pyrrolo[3,4-b]pyridin-5-one], the Emax at 30 µM (Human M4) was 93%, the pEC50 (Human M4) was 8.52 and the Emax at 30 µM (Human M2) was 60%. The pEC50 (Human M2) was 6.48.

Compound `[2H]C1([2H])CC(Oc2ccc3c(c2)OCCO3)CC([2H])([2H])N1c1nc2c(cc1C)C(=O)NC2` [Compound 11, 2-(4-((2,3-dihydrobenzo[b][1,4]dioxin-6-yl)oxy)piperidin-1-yl-2,2,6,6-d4)-3-methyl-6,7-dihydro-5H-pyrrolo[3,4-b]pyridin-5-one] has an Emax at 30 µM (Human M4) of 73%, a pEC50 (Human M4) of 8.30 and an Emax at 30 µM (Human M2) of 60%. The pEC50 (Human M2) was 6.29.

`[2H]C1([2H])Oc2ccc(OC3CCN(c4nc5n[nH]c(=O)n5cc4C)CC3)cc2OC1([2H])[2H]` [Compound A1, 7-(4-((2,3-dihydrobenzo[b][1,4]dioxin-6-yl-2,2,3,3-d4)oxy)piperidin-1-yl)-6-methyl-[1,2,4]triazolo[4,3-a]pyrimidin-3(2H)-one] gave an Emax at 30 µM (Human M4) of 100%, a pEC50 (Human M4) of 8.30 and an Emax at 30 µM (Human M2) of 78%. It also gave a pEC50 (Human M2) of 6.44.

Compound `[2H]C1([2H])Oc2ccc(OC3CCN(c4nc5c(cc4C)C(=O)N(C)C5)CC3)cc2OC1([2H])[2H]` [Compound 5, 2-(4-((2,3-dihydrobenzo[b][1,4]dioxin-6-yl-2,2,3,3-d4)oxy)piperidin-1-yl)-3,6-dimethyl-6,7-dihydro-5H-pyrrolo[3,4-b]pyridin-5-one] has an Emax at 30 µM (Human M4) of 76%, a pEC50 (Human M4) of 8.40 and an Emax at 30 µM (Human M2) of 70%. The pEC50 (Human M2) was 6.66.
